Data published in ChEMBL document CHEMBL6177949, “Exploiting Solvent Exposed Salt-Bridge Interactions for the Discovery of Potent Inhibitors of SOS1 Using Free-Energy Perturbation Simulations” (ACS Med Chem Lett, 2025).
Values after ≈ are worked out from the molar mass of the structure shown.

Legend:
NCI-H358 = assay: cells; settings: Homo sapiens
Description: Antiproliferative activity against human NCI-H358 cells assessed as reduction in cell viability incubated for 10 days with media refreshed for every 5 days by celltiter-glo assay

[1] = molecular target: Son of sevenless homolog 1 (Homo sapiens, UniProt Q07889, G12C); assay: Binding affinity to recombinant human His10-tagged SOS1 (564 to 1049 residues) assessed as inhibition of GST-tagged human KRAS G12C mutant (1 to 169 residues) interaction with SOS1 preincubated for 15 mins followed by KRAS addition and measured after 2 hrs by FRET assay
Chain of Son of sevenless homolog 1 (Q07889 whole entry, looked up, stated change not applied, the tested form may be a part): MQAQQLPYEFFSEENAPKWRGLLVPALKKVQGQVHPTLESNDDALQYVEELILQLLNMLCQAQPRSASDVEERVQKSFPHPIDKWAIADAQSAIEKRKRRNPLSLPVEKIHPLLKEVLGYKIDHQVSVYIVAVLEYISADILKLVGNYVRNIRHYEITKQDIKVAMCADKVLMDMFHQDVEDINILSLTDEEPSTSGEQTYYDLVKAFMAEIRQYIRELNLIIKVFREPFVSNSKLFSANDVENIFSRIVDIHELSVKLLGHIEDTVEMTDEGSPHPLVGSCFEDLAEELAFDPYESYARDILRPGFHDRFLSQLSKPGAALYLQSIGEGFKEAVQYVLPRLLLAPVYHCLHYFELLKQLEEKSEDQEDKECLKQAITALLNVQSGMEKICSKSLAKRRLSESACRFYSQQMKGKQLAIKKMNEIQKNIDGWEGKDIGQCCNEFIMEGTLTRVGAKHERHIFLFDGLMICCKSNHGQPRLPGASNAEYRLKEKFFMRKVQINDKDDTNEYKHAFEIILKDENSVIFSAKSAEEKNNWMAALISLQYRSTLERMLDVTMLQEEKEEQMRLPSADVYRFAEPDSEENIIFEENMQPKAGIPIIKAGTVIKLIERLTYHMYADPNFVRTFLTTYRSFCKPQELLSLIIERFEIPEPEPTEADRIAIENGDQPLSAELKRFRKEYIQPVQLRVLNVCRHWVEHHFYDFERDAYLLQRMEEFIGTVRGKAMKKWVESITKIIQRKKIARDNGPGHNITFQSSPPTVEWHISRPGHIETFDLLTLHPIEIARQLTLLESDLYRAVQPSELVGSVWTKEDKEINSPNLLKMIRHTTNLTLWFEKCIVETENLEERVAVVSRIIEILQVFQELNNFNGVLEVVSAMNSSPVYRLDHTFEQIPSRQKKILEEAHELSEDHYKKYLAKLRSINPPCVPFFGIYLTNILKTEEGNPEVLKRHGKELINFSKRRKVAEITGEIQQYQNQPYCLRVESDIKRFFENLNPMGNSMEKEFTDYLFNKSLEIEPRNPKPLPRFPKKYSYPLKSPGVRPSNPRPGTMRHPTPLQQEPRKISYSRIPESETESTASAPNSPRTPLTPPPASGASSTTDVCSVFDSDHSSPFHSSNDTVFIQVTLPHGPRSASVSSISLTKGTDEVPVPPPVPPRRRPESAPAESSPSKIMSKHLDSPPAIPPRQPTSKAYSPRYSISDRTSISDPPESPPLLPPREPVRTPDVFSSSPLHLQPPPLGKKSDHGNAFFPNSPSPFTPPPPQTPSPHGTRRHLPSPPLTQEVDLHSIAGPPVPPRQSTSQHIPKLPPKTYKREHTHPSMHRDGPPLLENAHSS

[2] = Lipophilicity, log D of the compound in octanol/phosphate buffer at pH 7.4 measured after 2 hrs by LC-MS/MS based shake flask method; type: physicochemical
[3] = Kinetic solubility of the compound in pH 7.4 phosphate buffered saline at 300 uM measured after 2 hrs by LC-MS/MS analysis; type: physicochemical; settings: read-out: Kinetic_solubility
[4] = Apparent permeability across apical to basolateral side in MDCKII-MDR1 cells at 10 uM measured after 60 mins by LC-MS/MS analysis; type: ADME, cell-based, Canis lupus familiaris; settings: dog, MDCK-MDR1
[5] = molecular target: Voltage-gated inwardly rectifying potassium channel KCNH2 (Homo sapiens, UniProt Q12809); assay: Inhibition of human ERG stably transfected in HEK293 cells by manual patch-clamp assay; type: toxicity, cell-based
Chain of Voltage-gated inwardly rectifying potassium channel KCNH2 (Q12809 whole entry): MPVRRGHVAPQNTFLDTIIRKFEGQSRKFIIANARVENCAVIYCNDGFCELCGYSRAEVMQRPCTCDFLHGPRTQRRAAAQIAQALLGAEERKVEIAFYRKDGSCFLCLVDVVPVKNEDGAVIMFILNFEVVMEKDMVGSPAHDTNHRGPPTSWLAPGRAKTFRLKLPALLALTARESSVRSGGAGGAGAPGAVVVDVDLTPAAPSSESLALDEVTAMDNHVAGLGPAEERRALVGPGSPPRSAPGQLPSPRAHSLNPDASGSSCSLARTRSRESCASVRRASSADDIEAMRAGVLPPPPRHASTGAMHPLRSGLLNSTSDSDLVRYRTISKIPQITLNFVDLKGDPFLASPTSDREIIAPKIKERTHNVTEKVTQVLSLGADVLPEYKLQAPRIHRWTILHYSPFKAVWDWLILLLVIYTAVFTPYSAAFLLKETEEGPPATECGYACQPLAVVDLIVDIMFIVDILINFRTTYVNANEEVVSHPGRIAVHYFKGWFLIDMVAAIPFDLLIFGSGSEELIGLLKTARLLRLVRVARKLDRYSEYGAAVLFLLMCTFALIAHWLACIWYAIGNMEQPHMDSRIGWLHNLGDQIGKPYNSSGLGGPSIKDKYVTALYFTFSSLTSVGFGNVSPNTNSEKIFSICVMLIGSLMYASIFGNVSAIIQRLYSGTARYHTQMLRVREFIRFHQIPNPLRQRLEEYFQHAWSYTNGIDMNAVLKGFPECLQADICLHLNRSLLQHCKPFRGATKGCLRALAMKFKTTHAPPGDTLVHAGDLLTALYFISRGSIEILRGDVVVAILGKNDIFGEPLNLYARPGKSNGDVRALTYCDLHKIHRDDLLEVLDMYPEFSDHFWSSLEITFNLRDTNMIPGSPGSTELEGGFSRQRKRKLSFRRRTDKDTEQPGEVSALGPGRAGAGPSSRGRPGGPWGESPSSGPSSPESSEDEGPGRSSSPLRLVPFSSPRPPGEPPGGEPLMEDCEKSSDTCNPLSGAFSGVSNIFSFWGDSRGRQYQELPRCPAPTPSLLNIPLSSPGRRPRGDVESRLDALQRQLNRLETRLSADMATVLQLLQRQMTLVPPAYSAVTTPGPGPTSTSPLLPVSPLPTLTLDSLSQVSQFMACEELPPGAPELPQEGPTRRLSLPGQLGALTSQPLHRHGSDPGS

[6] = Intrinsic clearance in human liver microsomes at 1 uM measured after 0.5 to 30 mins in presence of NADPH by LC-MS/MS analysis; type: ADME, Microsome; settings: time 0.5-30 min, read-out: CLH
[7] = Intrinsic clearance in mouse liver microsomes at 1 uM measured after 0.5 to 30 mins in presence of NADPH by LC-MS/MS analysis; type: ADME, Microsome; settings: time 0.5-30 min, read-out: CLH
[8] = Unbound clearance in BALB/c mouse at 5 mg/kg, po via gavage or 1 mg/kg, iv administered as bolus dose by LC-MS/MS analysis; type: ADME, organism-based; settings: in vivo
[9] = Volume of distribution at steady state in BALB/c mouse at 1 mg/kg, iv administered as bolus dose by LC-MS/MS analysis; type: ADME, organism-based; settings: in vivo, read-out: Vdss
[10] = Half life in BALB/c mouse at 1 mg/kg, iv administered as bolus dose by LC-MS/MS analysis; type: ADME, organism-based; settings: in vivo
[11] = Oral bioavailability in BALB/c mouse at 5 mg/kg administered via gavage by LC-MS/MS analysis; type: ADME, organism-based; settings: in vivo
[12] = Dissociation constant, pKa of compound at 33 uM by UV-vis spectroscopy; type: physicochemical

| Structure (SMILES) | IC50 (NCI-H358) [nM] | logD at 2 h [2] | Papp A→B at 1 h, 10 µM [4] [×10⁻⁶ cm/s] | CLint scaled at 1 µM [6] [mL/min/kg] | CLint scaled at 1 µM [7] [mL/min/kg] | pKa at 33 µM [12] | further results |
| --- | --- | --- | --- | --- | --- | --- | --- |
| COc1cc2nc(C)nc(N[C@H](C)c3cc(N)cc(C(F)(F)F)c3)c2cc1O[C@H]1CCOC1 | 32 |  |  |  |  |  |  |
| Oc1cc(-c2ncc3c(N4C[C@H]5CC[C@@H](C4)N5)nc(OCC45CCCN4CCC5)nc3c2F)c2ccccc2c1 |  |  |  |  |  |  | IC50 [1]: < 2 nM |
| C[C@@H](Nc1nc2c(c3cc(=O)n(C4CC4)cc13)CC(N1CCC1)CC2)c1cccc(C(F)F)c1F (some centres undefined) | 19 | 2.6 | 0.3 | 9 | 49 |  | solubility kinetic at 2 h, 300 µM [3]: 226 µM (≈ 109 µg/mL); IC50 [5]: 1100 nM; CL free [8]: 353 mL/min/kg; Vd [9]: 4.1 L/kg; half-life [10]: 1.1 h; bioavailability [11]: 2% |
| C[C@@H](Nc1nc2c(c3cc(=O)n(C4CCOCC4)cc13)CC(N1CCC1)CC2)c1cccc(C(F)F)c1F (some centres undefined) |  |  |  |  |  | 9.3 |  |
| COC1CN(C2CCc3nc(N[C@H](C)c4cccc(C(F)F)c4F)c4cn(C5CCOCC5)c(=O)cc4c3C2)C1 (some centres undefined) |  |  |  |  |  | 7.8 |  |
| Cc1c([C@@H](C)Nc2nc3c(c(=O)n2C)CNCC3)cccc1C(F)(F)F |  |  | 3.2 |  |  |  |  |
| C[C@@H](Nc1nc2c(c3cc(=O)n(C4CCOCC4)cc13)CC(N1CC(F)(F)C1)CC2)c1cccc(C(F)F)c1F (some centres undefined) |  |  |  |  |  | 6.1 |  |
| Cc1c([C@@H](C)Nc2nc3c(c4cc(=O)n(C5CCOCC5)cc24)CNCC3)cccc1C(F)(F)F |  | 2.9 | 0.2 | 11 | 46 | 8.8 |  |
| C[C@@H](Nc1nc2c(c3cc(=O)n(C4CC4)cc13)CC(N1CC[C@@H](F)C1)CC2)c1cccc(C(F)F)c1F (some centres undefined) | 32 | 3.7 | 0.2 | 56 | 143 |  | solubility kinetic at 2 h, 300 µM [3]: 90 µM (≈ 46.3 µg/mL); IC50 [5]: 1100 nM; CL free [8]: 816 mL/min/kg; Vd [9]: 4.6 L/kg; half-life [10]: 4 h; bioavailability [11]: 2% |
| Cc1c(C#N)cccc1[C@@H](C)Nc1nnc(C)c2cnc(N3CCOCC3)cc12 [MRTX-0902] | 22 |  |  |  |  |  |  |
